We go through 15 molecules from US20250268925A1, “METHODS OF TREATING MEDICAL CONDITIONS AND INHIBITING LINE1 REVERSE TRANSCRIPTASE USING A SUBSTITUTED ADENINYL-PROPYLOXY PHOSPHONIC ACID OR RELATED COMPOUND” (ROME THERAPEUTICS, INC., priority 2021, published 2025).

pIC50: −log10 of the molar value.

Series [1] has as its target T1, LINE1 reverse transcriptase (Homo sapiens, UniProt O00370). The series is described as follows: Stable artificial-intron Cis LINE1 reporter assay. The class given is cell-based. On the set-up: expressed in transfected cells; host or cells: HeLa Tet-On 3G (Takara, cat no 631183). The text has this: A stable HeLa Tet-On 3G (Takara, cat no 631183) cell line expressing a bi-directional inducible LINE1 construct was generated as described in Xie, Y. et al. “Cell division promotes efficient retrotransposition in a stable L1 reporter cell line,” Mobile DNA (2013) 4:10. Single cell clones were screened for high Luciferase expression and the highest expression Firefly expressing clone was chosen for compound testing.
Test compounds were serially diluted in DMSO and spotted in 96-well plates. Subsequently the HeLa L1 artificial-intron reporter cells were plated into the compound-containing wells (8,000 cells/well), and the cells were induced for reporter expression with doxycycline (Sigma cat no D9891) at a final concentration of 500 ng/mL. Luminescence was measured 72 h after plating using the Dual-Glo Luciferase Assay System (Promega cat no E2940) following the manufacturer's instructions. The Firefly Luciferase activity (normalized against its activity in a control well without test compound) was used to report LINE1 activity.

Series [2] has as its target T1, LINE1 reverse transcriptase. The series is described as follows: Transient artificial-intron Cis LINE1 reporter assay. Format: cell-based. On the set-up: expressed in transfected cells. On the procedure: Intron-disrupted Firefly luciferase (FLuc) expression cassettes were generated as described by Xie, Y. et al. “Characterization of L1 retrotransposition with high-throughput dual-luciferase assays,” Nucleic Acid Res. (2011) Vol. 39, No. 3, e16. In addition, the plasmid contained an intact Renilla luciferase (RLuc) expression cassette on the vector backbone, in order to normalize transfection efficiency and measure potential cell toxicity.
HEK 293 cells were seeded in 96-well plates at 1,000 cells/well in 55 μL and grown for 24 hours. Cells were transfected with FuGeneHD (Promega) following the manufacturer's protocol. Each well received 0.133 ng plasmid, 0.4 μL FuGeneHD reagent, and 4.5 μL GlutaMAX-I-supplemented Opti-MEM I reduced-serum medium (Invitrogen). Cells were simultaneously treated with test compound serially diluted starting at 100 μM in a 3-fold dilution dose response.
Luminescence was measured using the Dual-Glo Luciferase Assay System (Promega) following the manufacturer's instructions. The ratio between FLuc and RLuc gene expression (each of which was normalized against its expression in a control well without test compound) was used to report LINE1 activity.

Series [3] is described as follows: CellTiter-Glo cell viability in THP1-Dual KO-TREX1 cells. Format: cell-based. To be noted: human, 10 μM compound (highest dose), five days, read-out: CellTiter-Glo average inhibition (cell viability). The procedure: (§1) THP1-Dual™ KO-TREX1 cells were purchased from Invivogen (cat #thpd-kotrex). The THP1-Dual™ KO-TREX1 cells were cultured in RPMI 1640, 10% heat-inactivated fetal bovine serum, 25 mM HEPES, 10 μg/mL Blasticidin, and 100 μg/mL Zeocin. THP1-Dual™ KO-TREX1 cells were treated with a dose titration of test compound in the presence of 1 μM 5-aza-2′-deoxycytidine (Sigma, cat #189825). Type 1 Interferon and cell viability were assessed after five days of treatment.
THP1-Dual™ KO-TREX1 cells were treated with 1 μM 5-aza-2′-deoxycytidine. The THP1-Dual™ KO-TREX1 cells (50 μL) were added to each well of the 384-well plate containing test compound titration at 10,000 cells/well. Cells were incubated at 37° C., 5% CO2 in a humidified incubator for five days. […] Luminescence was detected on a plate reader according to manufacturer's instructions. […] Percent induction of interferon was calculated using the following analysis: (Sample−Average DMSO)/(10 μM control reagent−Average DMSO)*100.
The remaining cells were assessed for cell viability by adding 30 μl of CellTiter-Glo (Promega, G9683) solution to each well, and placed on a shaker for 10 minutes at room temperature. Luminescence was detected on a plate reader, according to manufacturer's instructions. Percent inhibition of cell viability using CellTiter-Glo was calculated using the following analysis. […]

A further series has as its system Type 1 Interferon. The series is described as follows: Cellular assay for altering IFN production in THP1 TREX1 KO cells. Format: cell-based. The conditions noted are these: THP1-Dual KO-TREX1 cells, 1 μM 5-aza-2′-deoxycytidine, five days; direction of effect per figure legend. The procedure: as §1
Stock solution of test compound was prepared in DMSO followed by a three-fold dilution in DMSO. Additional 50× dilution was prepared in cell culture media for each dilution. 10 μL of diluted test compound was then added to a 384-well plate.
THP1-Dual™ KO-TREX1 cells were treated with 1 μM 5-aza-2′-deoxycytidine. The THP1-Dual™ KO-TREX1 cells (50 μL) were added to each well of the 384-well plate containing test compound titration at 10,000 cells/well. Cells were incubated at 37° C., 5% CO2 in a humidified incubator for five days. On day five, 20 μL of cell supernatant was transferred to a 384-well, white-walled plate, followed by addition to each well of 50 μL of QUANTI-LUC solution containing stabilizer. Luminescence was detected on a plate reader according to manufacturer's instructions. Percent inhibition of interferon was calculated using the following analysis: (Average DMSO−Sample)/(Average DMSO−Average 30 μM control reagent)*100. Percent induction of interferon was calculated using the following analysis: (Sample−Average DMSO)/(10 μM control reagent−Average DMSO)*100.

Series [4] deals with T2, recombinant MBP-tagged LINE1 protein (238-1061) (Homo sapiens, UniProt O00370).
T2 construct: recombinant MBP-tagged LINE1 protein (238-1061); made in house
The series is described as follows: Homogeneous time-resolved fluorescence (HTRF) LINE1 RT assay. The class given is biochemical. To be noted: tetra(sodium) salt; 25° C., 60 minutes. On the procedure:
The LINE1 reverse transcriptase homogeneous time-resolved fluorescence (HTRF) assay was performed with recombinant MBP-tagged LINE1 protein (238-1061) (generated and purified according to procedures in Dai L. et al. BMC Biochemistry 2011; 12:18) in a 384-well format. Test compound was serially diluted in DMSO and further diluted in the assay buffer (50 mM Tris-HCl, 50 mM KCl, 10 mM MgCl2, 10 mM DTT, pH 8.1) to achieve a final DMSO concentration of 1%. The serially diluted compound was mixed with 64 ng/well of LINE1 enzyme, 5 nM of pre-annealed template/biotin-primer pair (synthesized at Generay Biotechnology), 10 nM of Fluorescein-12-dATP fluorescent probe (Perkin Elmer), and 1 μM dGTP/dCTP/dTTP (Thermo Fisher Scientific) in the assay buffer. The template/biotin-primer sequences were as follows:
After incubating at 25° C. for 60 minutes, the detection reagent (20 mM EDTA with streptavidin-terbium cryptate, Cisbio Bioassay) in the PPI buffer (Cisbio Bioassay) was added, and the mixture was incubated at 25° C. for 30 minutes. At the end of the incubation, fluorescence was read at ex/em=337/485 nm and ex/em=337/520 nm on an Envision 2104 plate reader (Perkin Elmer). The fluorescence ratio at 520/485 nm was used for the calculation. […] The IC50 was calculated by fitting the compound dose inhibition curve with a 4-parameter non-linear regression equation.

Series [5] addresses T3, HERV-K reverse transcriptase (2-596)-8His protein (Homo sapiens, UniProt V9H0F6).
T3 construct: fused on or other part: C-terminal 8His tag
In words: Homogeneous time-resolved fluorescence (HTRF) HERV-K RT assay. The class given is biochemical. To be noted: tetra(sodium) salt; 25° C., 30 minutes. On the procedure: The HERV-K reverse transcriptase homogeneous time-resolved fluorescence (HTRF) assay was performed in a 384-well format with HERV-K reverse transcriptase (2-596)-8His protein. Baculoviruses were created using Bac-to-Bac technology (Invitrogen). pFastBac donor plasmids containing HERV-K reverse transcriptase sequence (NCBI GenBank number AAC63291.1, J. Virology (1999) Vol. 73, No. 3, pp. 2365-2375) were transformed into DH10 Bac cells following the manufacturer's instructions. Recombinant bacmids were then isolated clonally and transfected into SF9 cells with lipofectin. HERV-K reverse transcriptase was expressed in the SF9 insect cells and then purified using immobilized metal affinity chromatography (IMAC) followed by size-exclusion chromatography (SEC). […]
After incubating at 25° C. for 30 minutes, the detection reagent 20 mM EDTA with streptavidin-terbium cryptate (Cisbio Bioassay) in the PPI buffer (Cisbio Bioassay) was added, and the mixture was incubated at 25° C. for 60 minutes. At the end of the incubation, fluorescence was read at ex/em=337/485 nm and ex/em=337/520 nm on an Envision 2104 plate reader (Perkin Elmer). The fluorescence ratio at 520/485 nm was used for the calculation. […] The IC50 was calculated by fitting the compound dose inhibition curve with a 4-parameter non-linear regression equation.

Where [6] appears, read: HeLa Tet-On 3G L1 reporter cells, doxycycline 500 ng/mL, 72 h, Firefly luciferase, read-out: IC50.
Setting [7] is: HEK 293 cells, transient LINE1 reporter, no detectable IC50 when tested at concentrations up to 100 μM, read-out: IC50.
Setting [8] is: HEK 293 cells, FLuc/RLuc ratio, transient LINE1 reporter, read-out: IC50.

T3 sequence (V9H0F6 entry or part of it): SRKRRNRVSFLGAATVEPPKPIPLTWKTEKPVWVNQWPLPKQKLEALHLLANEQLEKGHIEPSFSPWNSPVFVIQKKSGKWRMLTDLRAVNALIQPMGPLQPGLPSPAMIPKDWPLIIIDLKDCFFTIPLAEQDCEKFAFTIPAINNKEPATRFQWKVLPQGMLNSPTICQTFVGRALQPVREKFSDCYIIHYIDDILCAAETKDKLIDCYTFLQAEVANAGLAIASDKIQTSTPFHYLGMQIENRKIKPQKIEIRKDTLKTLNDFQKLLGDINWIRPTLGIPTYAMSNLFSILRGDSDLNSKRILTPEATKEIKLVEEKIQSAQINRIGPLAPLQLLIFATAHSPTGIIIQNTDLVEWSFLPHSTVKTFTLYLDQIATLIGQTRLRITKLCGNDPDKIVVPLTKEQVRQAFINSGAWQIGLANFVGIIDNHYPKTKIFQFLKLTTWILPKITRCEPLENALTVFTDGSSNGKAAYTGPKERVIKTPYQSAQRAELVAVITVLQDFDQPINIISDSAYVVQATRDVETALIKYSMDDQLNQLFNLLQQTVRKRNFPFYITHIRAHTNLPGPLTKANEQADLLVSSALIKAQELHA

For `Nc1ccn([C@@H]2CS[C@H](CO)O2)c(=O)n1` [lamivudine (3TC), lamivudine, reference compound], the pIC50 in series [1] (setting [6]) was less than 6.30; in series [2] (setting [7]), less than 4.00.

As to `CC(C)OC(=O)[C@H](C)N[P@](=O)(CO[C@H](C)Cn1cnc2c(N)ncnc21)Oc1ccccc1` [Compound I-1], the cytotoxicity at 5 days, 10 μM in series [3] worked out at 57%. Also, the “changes in IFN levels (inhibition or induction of IFN)” value in the series with Type 1 Interferon is on record as “inhibition of IFN”. Also, the pIC50 in series [1] and in series [2] was more than 7.30 each time.

Take `C[C@H](Cc1ccc2c(N)ncnn12)OCP(=O)(O)O` [Compound V-105]: the pIC50 in series [1] (setting [6]) was less than 6.30.

Regarding `CC(C)OC(=O)C(C)(C)N[P@@](=O)(CO[C@H](C)Cn1cnc2c(N)ncnc21)Oc1ccccc1` [Compound I-21], the “changes in IFN levels (inhibition or induction of IFN)” value in the series with Type 1 Interferon is on record as “induction of IFN”. In addition, the pIC50 in series [1] (setting [6]) is 6.30 to 7.30.

As for `Cc1cn([C@H]2C[C@H](N=[N+]=[N-])[C@@H](CO)O2)c(=O)[nH]c1=O` [AZT (zidovudine), zidovudine, reference compound], the results for the pIC50 in series [1] (setting [6]) and in series [2] (setting [7]) were less than 6.30 and less than 4.00, respectively.

On to `Nc1nc(=O)c2ncn([C@@H]3C[C@H](CO)[C@H]3CO)c2[nH]1` [lobucavir, reference compound], for which the values for the pIC50 in series [1] (setting [6]) and in series [2] (setting [7]) were less than 6.30 and less than 4.00, respectively.

For the molecule `C[C@H](Cn1cnc2c(N)ncnc21)OCP(=O)(O)OP(=O)(O)OP(=O)(O)O` [drawing 1227], in series [4], the pIC50 is 7.15.

In the case of `CC(C)OC(=O)OCOP(=O)(CO[C@H](C)Cc1ccc2c(N)ncnn12)OCOC(=O)OC(C)C` [Compound V-106], the pIC50 in series [1] (setting [6]) is less than 6.30.

As to `CC(C)OC(=O)OCOP(=O)(CO[C@H](C)Cn1cnc2c(N)ncnc21)OCOC(=O)OC(C)C` [Compound V-7], the negative logarithm of the IC50 (pIC50) is 6.30 to 7.30 in series [1] (setting [6]) and more than 7.30 in series [2] (setting [8]).

Take `C[C@H](Cn1cnc2c(N)ncnc21)OCP(=O)(O)O` [Compound V-1]: the “changes in IFN levels (inhibition or induction of IFN)” value in the series on Type 1 Interferon is “inhibition of IFN”. Further, the pIC50 in series [1] (setting [6]) and in series [2] (setting [8]) was less than 6.30 in each case.

`Nc1ccn([C@H]2CO[C@@H](CO)S2)c(=O)n1` [apricitabine]: the pIC50 in series [2] (setting [7]) was less than 4.00.

Regarding `CCCCCCCCCCCCCCCCOCCCOP(=O)(O)CO[C@H](C)Cn1cnc2c(N)ncnc21` [VI-1], in the series on Type 1 Interferon, the “changes in IFN levels (inhibition or induction of IFN)” value was “induction of IFN”. For the same molecule, the pIC50 in series [1] (setting [6]) is 6.30 to 7.30.

On to `CC(C)OC(=O)[C@H](C)NP(=O)(CO[C@H](C)Cc1ccc2c(N)ncnn12)Oc1ccccc1` (some centres unmarked) [Compound I-115], for which, in the series on Type 1 Interferon, the “changes in IFN levels (inhibition or induction of IFN)” value is given as “induction of IFN”. For the same molecule, the pIC50 in series [1] (setting [6]) is 6.30 to 7.30.

`C[C@H](Cn1cnc2c(N)ncnc21)OCP(=O)(O)OP(=O)(O)OP(=O)(O)O` [drawing 1228]: in series [5], the pIC50 was 7.70.

With `CC(C)OC(=O)C(C)(C)N[P@](=O)(CO[C@H](C)Cn1cnc2c(N)ncnc21)Oc1ccccc1` [Compound I-20], the cytotoxicity at 5 days, 10 μM in series [3] worked out at 65%. Besides, the “changes in IFN levels (inhibition or induction of IFN)” value in the series on Type 1 Interferon is “inhibition of IFN”. Further, the pIC50 in series [1] (setting [6]) was more than 7.30.
